Data reported in US20170253607A1, “LONG-ACTING HIV PROTEASE INHIBITOR” (Shionogi & Co., Ltd., priority 2014, published 2017).

Key:
[1] = Evaluation of total body clearance (CLtot), intravenous administration; assay type: in vivo, Sprague-Dawley (SD); settings: rat (SD), intravenous administration 0.5-10 mg/kg; CLtot = dose/AUC
In short: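 Compounds given as a single tail-vein injection at 0.5-10 mg/kg (n=2-3), dose varying by compound. Plasma sampled at scheduled times and measured by LC/MS/MS; CLtot derived as dose divided by AUC from pharmacokinetic analysis.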

HIV-1 PR = HIV-1 PR (Human immunodeficiency virus type 1 group M subtype B, UniProt P04585); experiment: HIV-protease inhibitory activity assay (FRET peptide substrate); assay type: biochemical; settings: Test Example 1
In short: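 Fluorescence recovery at ex 485/em 535 nm reports cleavage of a quenched FRET peptide (2 μmol/L final) by 0.83 ng enzyme over 60 minutes at room temperature. Buffer was NaAc pH 4.8 with NaCl, EDTA, DTT and Tween 20. IC50 values came from four-parameter logistic regression of % inhibition.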

[2] = Protein binding test (equilibrium dialysis, unbound ratio fu in serum); assay type: in vitro ADME; settings: rat serum, equilibrium dialysis 24 hours, 37° C., 2 μg/mL
Experimental: Assay condition: Evaluation method; Equilibrium dialysis method, Reaction time; 24 hours, Reaction temperature; 37° C., Assay concentration; 2 μg/mL A solution of the compound was added to each serum and mixed to prepare the serum samples with above concentration. The serum sample was put into one side of an equilibrium dialysis apparatus with dialysis membrane and phosphate buffered saline (PBS) was also put to another side of the apparatus. The apparatus was incubated at 37° C. for 24 hours. After incubation, the serum and PBS samples were collected and the compound concentrations in both samples were measured by LC/MS/MS. Fu was calculated by dividing the concentration in PBS by the concentration in the serum.

Row | Structure (SMILES) | rat_CLt [1] | IC50 (HIV-1 PR) | rat_fu [2]
1 | COc1ccc(S(=O)(=O)N(CC(C)C)CC(O)C(Cc2ccc(OCc3nccnc3-c3ccc(-c4sc5c(c4C(=O)O)CC(C)(C)CC5)cc3)cc2)NC(=O)OC2COC3(C)OCCC23)cc1 (stereo not drawn) [Compound I-195] | 6.74 mL/min/kg | 2.15 nM | <0.1%
2 | COc1ccc(S(=O)(=O)N(CC(C)C)CC(O)C(Cc2ccc(NCc3ccc(F)cc3-c3sc4c(c3C(=O)O)CC(C)(C)CC4)cc2)NC(=O)OC2COC3(C)OCCC23)cc1 (stereo not drawn) [Compound I-275] | 2.12 mL/min/kg | 2.11 nM | <0.1%
3 | COc1ccc(S(=O)(=O)N(CC2CCCC2)CC(O)C(Cc2ccc(OCc3cc(C(F)(F)F)ccc3-n3nc4c(c3C(=O)O)CC(C)(C)CC4)cc2)NC(=O)OC2COC3(C)OCCC23)cc1 (stereo not drawn) [Compound I-365] | 0.119 mL/min/kg | 3.2 nM | <0.1%
4 | COc1ccc(S(=O)(=O)N(CC(C)C)CC(O)C(Cc2ccc(N(C)CCc3ccccc3-c3sc4c(c3C(=O)O)CC(C)(C)CC4)cc2)NC(=O)OC2COC3(C)OCCC23)cc1 (stereo not drawn) [Compound I-261] | 2.78 mL/min/kg | 3.55 nM | <0.1%
5 | CC1(C)CCc2sc(-c3ccc(OCCN(CC(O)C(Cc4ccccc4)NC(=O)OC4COC5(C)OCCC45)S(=O)(=O)c4ccc5ncsc5c4)cc3)c(C(=O)O)c2C1 (stereo not drawn) [Compound I-165] | 1.08 mL/min/kg | 3.21 nM | <0.1%
6 | COc1ccc(S(=O)(=O)N(CC(C)C)CC(O)C(Cc2ccc(N(C)CC3=C(c4sc5c(c4C(=O)O)CC(C)(C)CC5)CCC3)cc2)NC(=O)OC2COC3(C)OCCC23)cc1 (stereo not drawn) [Compound I-347] | 5.18 mL/min/kg | 4.4 nM | <0.1%
7 | COc1ccc(S(=O)(=O)N(CC(C)C)CC(O)C(Cc2ccc(NCc3ccc4ccccc4c3-c3sc4c(c3C(=O)O)CC(C)(C)CC4)cc2)NC(=O)OC2COC3OCCC23)cc1 (stereo not drawn) [Compound I-851] | 0.298 mL/min/kg | 2.57 nM | <0.1%
8 | COc1ccc(S(=O)(=O)N(CC(C)C)CC(O)C(Cc2ccc(NCc3cccc(-c4sc5c(c4C(=O)O)CC(C)(C)CC5)c3C)cc2)NC(=O)OC2COC3(C)OCCC23)cc1 (stereo not drawn) [Compound I-292] | 0.166 mL/min/kg | 2.68 nM | <0.1%
9 | COc1ccc(S(=O)(=O)N(CC(C)C)CC(O)C(Cc2ccc(CN3CCc4c(-c5sc6c(c5C(=O)O)CC(C)(C)CC6)cccc43)cc2)NC(=O)OC2COC3(C)OCCC23)cc1 (stereo not drawn) [Compound I-386] | 4.96 mL/min/kg | 5.89 nM | <0.1%
10 | COc1ccc(S(=O)(=O)N(CC(C)C)C[C@@H](O)[C@H](Cc2ccc(OCc3ccccc3-c3sc4c(c3C(=O)O)CC(C)(C)CC4)cc2)NC(=O)O[C@H]2CCO[C@H]3OCC[C@H]32)cc1 [Compound I-908] | 0.63 mL/min/kg | 1.21 nM | <0.1%
11 | COc1ccc(S(=O)(=O)N(CC2CCCC2)CC(O)C(Cc2ccc(OCc3ccccc3-n3nc4c(c3C(=O)O)CC(C)(C)CC4)cc2)NC(=O)OC2COC3(C)OCCC23)cc1 (stereo not drawn) [Compound I-139] | 0.286 mL/min/kg | 0.78 nM | <0.1%
12 | COc1ccc(S(=O)(=O)N(CC(C)C)CC(O)C(Cc2ccc(OCc3ncccc3-c3ccc(-c4sc5c(c4C(=O)O)CC(C)(C)CC5)cc3)cc2)NC(=O)OC2COC3(C)OCCC23)cc1 (stereo not drawn) [Compound I-44] | 0.535 mL/min/kg | 1.09 nM | <0.1%
13 | COc1ccc(S(=O)(=O)N(CC(C)C)CC(O)C(Cc2ccc(N(C)C3Cc4cccc(-c5sc6c(c5C(=O)O)CC(C)(C)CC6)c4C3)cc2)NC(=O)OC2COC3(C)OCCC23)cc1 (stereo not drawn) [Compound I-405] | 3.27 mL/min/kg | 2.42 nM | <0.1%
14 | COc1ccc(S(=O)(=O)N(CC(C)C)CC(O)C(Cc2ccc(NCc3ncc(-c4sc5c(c4C(=O)O)CC(C)(C)CC5)s3)cc2)NC(=O)OC2COC3(C)OCCC23)cc1 (stereo not drawn) [Compound I-297] | 3.54 mL/min/kg | 1.82 nM | <0.1%
15 | COc1ccc(S(=O)(=O)N(CC(C)C)CC(O)C(Cc2ccc(OCc3ccccc3-c3sc4c(c3C(=O)O)CC(C)(C)CC4)cc2)NC(=O)OC2CC3OCC(O)C3C2)cc1 (stereo not drawn) [Compound I-29] | 1.54 mL/min/kg | 1.41 nM | <0.1%
16 | COc1ccc(S(=O)(=O)N(CC(C)C)CC(O)C(Cc2ccc(OCc3ccccc3-c3sc4c(c3C(=O)O)CC(C)(C)CC4)cc2)NC(=O)OC2COC3(CO)OCCC23)cc1 (stereo not drawn) [Compound I-99] | 0.576 mL/min/kg | 0.81 nM | <0.1%

Row | Structure (SMILES) | rat_CLt [1] | IC50 (HIV-1 PR) | rat_fu [2]
17 | CC(C)CN(CC(O)C(Cc1ccc(OCc2ccccc2-c2sc3c(c2C(=O)O)CC(C)(C)CC3)cc1)NC(=O)OC1COC2(C)OCCC12)S(=O)(=O)c1ccc2nc(N)sc2c1 (stereo not drawn) [Compound I-51] | 1.47 mL/min/kg | 2.65 nM | <0.1%
18 | COc1ccc(S(=O)(=O)N(CC(C)C)CC(O)C(Cc2ccc(N(C)C3CN(c4ccc(-c5sc6c(c5C(=O)O)CC(C)(C)CC6)cc4)C3)cc2)NC(=O)OC2COC3(C)OCCC23)cc1 (stereo not drawn) [Compound I-391] | 10.3 mL/min/kg | 3.94 nM | <0.1%
19 | COc1ccc(S(=O)(=O)N(CC(C)C)CC(O)C(Cc2ccc(NCc3cnc4ccccc4c3-c3sc4c(c3C(=O)O)CC(C)(C)CC4)cc2)NC(=O)OC2COC3(C)OCCC23)cc1 (stereo not drawn) [Compound I-384] | 0.253 mL/min/kg | 6.62 nM | <0.1%
20 | COc1ccc(S(=O)(=O)N(CC(C)C)CC(O)C(Cc2ccc(N(C)CCCc3ccccc3-c3sc4c(c3C(=O)O)CC(C)(C)CC4)cc2)NC(=O)OC2COC3(C)OCCC23)cc1 (stereo not drawn) [Compound I-240] | 4.5 mL/min/kg | 2.02 nM | <0.1%
21 | COc1ccc(S(=O)(=O)N(CC(C)C)CC(O)C(Cc2ccc(NCc3ncccc3-c3ccc(-c4sc5c(c4C(=O)O)CC(C)(C)CC5)cc3)cc2)NC(=O)OC2COC3(C)OCCC23)cc1 (stereo not drawn) [Compound I-415] | 0.66 mL/min/kg | 2.55 nM | <0.1%
22 | COc1ccc(S(=O)(=O)N(CC(C)C)CC(O)C(Cc2ccc(OCc3ccccc3-c3sc(Cl)c(C4CCCCC4)c3C(=O)O)cc2)NC(=O)OC2COC3OCCC23)cc1 (stereo not drawn) [Compound I-825] | 5.22 mL/min/kg | 1.02 nM | <0.1%
23 | CC(C)CN(CC(O)C(Cc1ccc(OCc2ccccc2-c2sc3c(c2C(=O)O)CC(C)(C)CC3(C)C)cc1)NC(=O)OC1COC2(C)OCCC12)S(=O)(=O)c1ccc2ncsc2c1 (stereo not drawn) [Compound I-119] | 2.29 mL/min/kg | 1.23 nM | <0.1%
24 | CC(C)CN(C[C@@H](O)[C@H](Cc1ccc(CCc2sc3c(c2C(=O)O)CC(C)(C)CC3)cc1)NC(=O)O[C@H]1CO[C@@]2(C)OCC[C@@H]12)S(=O)(=O)c1ccc2nc(N)sc2c1 [Compound I-15] | 4.86 mL/min/kg | 2.27 nM | <0.1%
25 | COc1ccc(S(=O)(=O)N(CC(C)C)CC(O)C(Cc2ccc(N(C)CC3CCCCC3c3sc4c(c3C(=O)O)CC(C)(C)CC4)cc2)NC(=O)OC2COC3(C)OCCC23)cc1 (stereo not drawn) [Compound I-374] | 3.94 mL/min/kg | 4.35 nM | <0.1%
26 | COc1ccc(S(=O)(=O)N(CC(C)C)CC(O)C(Cc2ccc(Oc3ccc(-c4sc5c(c4C(=O)O)CC(C)(C)CC5)c(F)c3)cc2)NC(=O)OC2COC3OCCC23)cc1 (stereo not drawn) [Compound I-836] | 4.31 mL/min/kg | 1.76 nM | <0.1%
27 | COc1ccc(S(=O)(=O)N(CC(C)C)CC(O)C(Cc2ccc(OCc3ccccc3-c3sc4c(c3C(=O)O)CCC4)cc2)NC(=O)OC2COC3OCCC23)cc1 (stereo not drawn) [Compound I-832] | 4.09 mL/min/kg | 1.16 nM | <0.1%
28 | CC(C)CN(CC(O)C(Cc1ccc(CCc2sc3c(c2C(=O)O)CC(C)(C)CC3)cc1)NC(=O)OC1COC2(C)OCCC12)S(=O)(=O)c1ccc(N)cc1 (stereo not drawn) [Compound I-43] | 3.19 mL/min/kg | 2 nM | <0.1%
29 | COc1ccc(S(=O)(=O)N(CC(C)C)C[C@@H](O)[C@H](Cc2ccc(OCc3ccccc3-c3sc4c(c3C(=O)O)CC(C)(C)CC4)cc2)NC(=O)O[C@H]2CO[C@@]3(C)OCC[C@@H]23)cc1 [Compound I-1] | 0.542 mL/min/kg | 1.29 nM | <0.1%
30 | Cc1cc(Oc2ccc(CC(NC(=O)OC3COC4OCCC34)C(O)CN(CC(C)C)S(=O)(=O)c3ccc4c(c3)OCO4)cc2)ccc1-c1sc2c(c1C(=O)O)CC(C)(C)CC2 (stereo not drawn) [Compound I-835] | 1.63 mL/min/kg | 2.81 nM | <0.1%
31 | CC(C)CN(CC(O)C(Cc1ccc(OCc2ccccc2-c2sc3c(c2C(=O)O)CC(C)(C)CC3)cc1)NC(=O)OC1COC2(C)OCCC12)S(=O)(=O)c1ccc2c(c1)OCO2 (stereo not drawn) [Compound I-132] | 0.376 mL/min/kg | 2.66 nM | <0.1%
